Laboratory results: ChEMBL document CHEMBL5576078, “Discovery of a potent, orally available furopyridine derivative as a novel selective bromodomain and extra-terminal domain (BET)-first bromodomain (BD1) inhibitor” (Bioorg Med Chem Lett, 2024)

Columns and labels:
[1] = target: T1, Bromodomain-containing protein 4 (Homo sapiens, UniProt O60885); assay: Inhibition of BRD4 BD1 (unknown origin) by TR-FRET assay
[2] = target: T1, Bromodomain-containing protein 4; assay: Inhibition of BRD4 BD1 (unknown origin)
[3] = target: T1, Bromodomain-containing protein 4; assay: Inhibition of BRD4 BD2 (unknown origin) by TR-FRET assay
[4] = Inhibition of LPS induced IL-6 production in HMVEC cells; conditions: Homo sapiens

SMILES | IC50 [1] | IC50 [2] | IC50 [3] | IC50 [4]
CC(=O)Nc1cc(-c2cn(C)c(=O)c3cc(CN4CCN(S(C)(=O)=O)C[C@H]4C)oc23)ccn1 | 63 nM | ≤ 100 nM | 650 nM | –
Cc1sc2c(c1C)C(c1ccc(Cl)cc1)=N[C@@H](CC(=O)OC(C)(C)C)c1nnc(C)n1-2 | – | – | – | 45 nM
C[C@@H]1CN(S(C)(=O)=O)CCN1Cc1cc2c(=O)n(C)cc(-c3cc(NS(C)(=O)=O)ccc3OCC3CC3)c2o1 | 11 nM | – | 20 nM | –
C[C@@H]1CN(S(C)(=O)=O)CCN1Cc1cc2c(=O)n(C)cc(-c3cc(Cl)nn3CC3CCOCC3)c2o1 | 180 nM | – | 3600 nM | –
C[C@@H]1CN(S(C)(=O)=O)CCN1Cc1cc2c(=O)n(C)cc(-c3cccc(NS(C)(=O)=O)c3)c2o1 | 27 nM | – | 1500 nM | –
C[C@@H]1CN(S(C)(=O)=O)CCN1Cc1cc2c(=O)n(C)cc(-c3nccnc3OCC3CC3)c2o1 | 18 nM | – | 1600 nM | –
C[C@@H]1CN(S(C)(=O)=O)CCN1Cc1cc2c(=O)n(C)cc(-c3nc(Cl)c(Cl)n3CC3CCOCC3)c2o1 | 150 nM | – | 8800 nM | –
C[C@@H]1CN(S(C)(=O)=O)CCN1Cc1cc2c(=O)n(C)cc(-c3nc(Cl)cn3CC3CCOCC3)c2o1 | 53 nM | – | > 10000 nM | –
